Measurements as given in the supplement of paper PMC8967900.

Test system: KARPAS-45
Experiment: selective drug sensitivity score (sDSS, relative to normal bone marrow) (sDSS (score)); higher = more potent and effective on the cell line relative to normal bone marrow cells
Conditions: 72 h
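Note: ALL cell lines in 384-well plates, five doses spanning 10,000-fold, each plate scaled between vehicle and 100 µmol/L benzalkonium chloride controls, sDSS an adapted area-under-curve metric.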

Compound | selective drug sensitivity score
CC(=O)[C@]1(O)Cc2c(O)c3c(c(O)c2[C@@H](O[C@H]2C[C@H](N)[C@H](O)[C@H](C)O2)C1)C(=O)c1ccccc1C3=O [Idarubicin] (top concentration 1000 nM) | -2.36
COc1cc2nccc(Oc3ccc(NC(=O)NC4CC4)c(Cl)c3)c2cc1C(N)=O [Lenvatinib] (top concentration 2500 nM) | 0.16
N#Cc1ccc(C(c2ccc(C#N)cc2)n2cncn2)cc1 [Letrozole] (top concentration 10000 nM) | -0.04
CCNCCS(=O)(=O)NC[C@@]1(c2ccccc2)SC(NC(=O)C(C)(C)C)=NN1C(=O)C(C)(C)C [Litronesib] (top concentration 1000 nM) | 21.9
CC[C@H](C)C(=O)O[C@H]1C[C@@H](C)C=C2C=C[C@H](C)[C@H](CC[C@@H]3C[C@@H](O)CC(=O)O3)[C@H]21 [Lovastatin] (top concentration 10000 nM) | 3
Cn1cc(-c2cnn3c(N)c(Br)c([C@@H]4CCCNC4)nc23)cn1 [MK-8776] (top concentration 2500 nM) | 0.34
Cc1cnc(-c2ccccc2C(C)C)nc1NCc1ccc(-n2ccnn2)cc1 [ML323] (top concentration 10000 nM) | 4.64
O=C(CCNC(=O)c1ccc(OC(F)(F)F)cc1)N[C@@H]1CCCc2ccccc21 [ML390] (top concentration 50000 nM) | 7.1
CN(C)C(=N)NC(=N)N [Metformin] (top concentration 100000 nM) | -0.02
C[C@H]1C[C@@H]2[C@H]([C@@H](O)C[C@@]3(C)[C@H]2CC[C@]3(O)C(=O)CO)[C@@]2(C)C=CC(=O)C=C12 [Methylprednisolone] (top concentration 10000 nM) | 16.4
FC(F)(F)c1ccc(/C=C/c2nc(COc3ccc(CCCCn4ccnn4)cc3)co2)cc1 [Mubritinib] (top concentration 1000 nM) | 11.6
COc1cc2c(cc1OC(C)C)[C@H](c1ccc(Cl)cc1)N(c1ccc(N(C)C[C@H]3CC[C@H](N4CCN(C)C(=O)C4)CC3)cc1)C(=O)C2 [NVP-CGM097] (top concentration 25000 nM) | -3.94
CCOc1cc2ncc(C#N)c(Nc3ccc(OCc4ccccn4)c(Cl)c3)c2cc1NC(=O)/C=C/CN(C)C [Neratinib] (top concentration 1000 nM) | 2.28
COc1ncc(-c2ccc3nccc(-c4ccnnc4)c3c2)cc1NS(=O)(=O)c1ccc(F)cc1F [Omipalisib] (top concentration 1000 nM) | 9.4
CN1CCN(c2cc(C(=O)Nc3ccc4c(c3)-c3c(c(C(N)=O)nn3-c3ccc(F)cc3)CC4)c(Cl)cn2)CC1 [PHA-408] (top concentration 10000 nM) | 0.98
OC[C@H]1O[C@@H](n2cnc3c2N=CNC[C@H]3O)C[C@@H]1O [Pentostatin] (top concentration 10000 nM) | -0.14
CC(C)N(C[C@H]1O[C@@H](n2cnc3c(N)ncnc32)[C@H](O)[C@@H]1O)[C@H]1C[C@@H](CCc2nc3cc(C(C)(C)C)ccc3[nH]2)C1 [Pinometostat] (top concentration 1000 nM) | 0
Cc1ccc(=O)n(-c2ccccc2)c1 [Pirfenidone] (top concentration 10000 nM) | 0

Test system: MHH-CALL-2
Experiment: as above
Conditions: 72 h

Compound | selective drug sensitivity score
CC(=O)[C@]1(O)Cc2c(O)c3c(c(O)c2[C@@H](O[C@H]2C[C@H](N)[C@H](O)[C@H](C)O2)C1)C(=O)c1ccccc1C3=O [Idarubicin] (top concentration 1000 nM) | 8.04
COc1cc2nccc(Oc3ccc(NC(=O)NC4CC4)c(Cl)c3)c2cc1C(N)=O [Lenvatinib] (top concentration 2500 nM) | 1.46
N#Cc1ccc(C(c2ccc(C#N)cc2)n2cncn2)cc1 [Letrozole] (top concentration 10000 nM) | -0.04
CCNCCS(=O)(=O)NC[C@@]1(c2ccccc2)SC(NC(=O)C(C)(C)C)=NN1C(=O)C(C)(C)C [Litronesib] (top concentration 1000 nM) | 15.6
CC[C@H](C)C(=O)O[C@H]1C[C@@H](C)C=C2C=C[C@H](C)[C@H](CC[C@@H]3C[C@@H](O)CC(=O)O3)[C@H]21 [Lovastatin] (top concentration 10000 nM) | 8.7
Cn1cc(-c2cnn3c(N)c(Br)c([C@@H]4CCCNC4)nc23)cn1 [MK-8776] (top concentration 2500 nM) | 2.54
Cc1cnc(-c2ccccc2C(C)C)nc1NCc1ccc(-n2ccnn2)cc1 [ML323] (top concentration 10000 nM) | 0.24
O=C(CCNC(=O)c1ccc(OC(F)(F)F)cc1)N[C@@H]1CCCc2ccccc21 [ML390] (top concentration 50000 nM) | 4.1
CN(C)C(=N)NC(=N)N [Metformin] (top concentration 100000 nM) | 0.58
C[C@H]1C[C@@H]2[C@H]([C@@H](O)C[C@@]3(C)[C@H]2CC[C@]3(O)C(=O)CO)[C@@]2(C)C=CC(=O)C=C12 [Methylprednisolone] (top concentration 10000 nM) | 26.5
FC(F)(F)c1ccc(/C=C/c2nc(COc3ccc(CCCCn4ccnn4)cc3)co2)cc1 [Mubritinib] (top concentration 1000 nM) | 4.76
COc1cc2c(cc1OC(C)C)[C@H](c1ccc(Cl)cc1)N(c1ccc(N(C)C[C@H]3CC[C@H](N4CCN(C)C(=O)C4)CC3)cc1)C(=O)C2 [NVP-CGM097] (top concentration 25000 nM) | 10.8
CCOc1cc2ncc(C#N)c(Nc3ccc(OCc4ccccn4)c(Cl)c3)c2cc1NC(=O)/C=C/CN(C)C [Neratinib] (top concentration 1000 nM) | 2.58
COc1ncc(-c2ccc3nccc(-c4ccnnc4)c3c2)cc1NS(=O)(=O)c1ccc(F)cc1F [Omipalisib] (top concentration 1000 nM) | 11
CN1CCN(c2cc(C(=O)Nc3ccc4c(c3)-c3c(c(C(N)=O)nn3-c3ccc(F)cc3)CC4)c(Cl)cn2)CC1 [PHA-408] (top concentration 10000 nM) | 1.58
OC[C@H]1O[C@@H](n2cnc3c2N=CNC[C@H]3O)C[C@@H]1O [Pentostatin] (top concentration 10000 nM) | -0.44
CC(C)N(C[C@H]1O[C@@H](n2cnc3c(N)ncnc32)[C@H](O)[C@@H]1O)[C@H]1C[C@@H](CCc2nc3cc(C(C)(C)C)ccc3[nH]2)C1 [Pinometostat] (top concentration 1000 nM) | 0
Cc1ccc(=O)n(-c2ccccc2)c1 [Pirfenidone] (top concentration 10000 nM) | 0

Test system: KASUMI-9
Experiment: as above
Conditions: 72 h

Compound | selective drug sensitivity score
CC(=O)[C@]1(O)Cc2c(O)c3c(c(O)c2[C@@H](O[C@H]2C[C@H](N)[C@H](O)[C@H](C)O2)C1)C(=O)c1ccccc1C3=O [Idarubicin] (top concentration 1000 nM) | 4.94
COc1cc2nccc(Oc3ccc(NC(=O)NC4CC4)c(Cl)c3)c2cc1C(N)=O [Lenvatinib] (top concentration 2500 nM) | 1.36
N#Cc1ccc(C(c2ccc(C#N)cc2)n2cncn2)cc1 [Letrozole] (top concentration 10000 nM) | -0.04
CCNCCS(=O)(=O)NC[C@@]1(c2ccccc2)SC(NC(=O)C(C)(C)C)=NN1C(=O)C(C)(C)C [Litronesib] (top concentration 1000 nM) | 18.4
CC[C@H](C)C(=O)O[C@H]1C[C@@H](C)C=C2C=C[C@H](C)[C@H](CC[C@@H]3C[C@@H](O)CC(=O)O3)[C@H]21 [Lovastatin] (top concentration 10000 nM) | 2.7
Cn1cc(-c2cnn3c(N)c(Br)c([C@@H]4CCCNC4)nc23)cn1 [MK-8776] (top concentration 2500 nM) | 1.54
Cc1cnc(-c2ccccc2C(C)C)nc1NCc1ccc(-n2ccnn2)cc1 [ML323] (top concentration 10000 nM) | 0.04
O=C(CCNC(=O)c1ccc(OC(F)(F)F)cc1)N[C@@H]1CCCc2ccccc21 [ML390] (top concentration 50000 nM) | 13.1
CN(C)C(=N)NC(=N)N [Metformin] (top concentration 100000 nM) | -0.02
